From ChEMBL document CHEMBL1201862, “PubChem BioAssay data set” (2004)
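Cultured in 96-well plates, cells were exposed to test compound for 48 hours across five concentrations. Abbreviation: GI50, concentration required for 50% inhibition of growth.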 The source made the active and inactive calls. Cut-off read from the data, not from the text of the source: active = GI50 up to about 1.1 µM and inactive = higher.

What was measured:
Experiment in all cases: inhibition of tumour cell growth, NCI panel, 48 h
[1] = system: OVCAR-8
[2] = system: SNB-19
[3] = system: K562
[4] = system: ACHN
[5] = system: SF-295
[6] = system: 786-0
[7] = system: HCT-15
[8] = system: SK-OV-3
[9] = system: MOLT-4
[10] = system: SNB-75
[11] = system: MDA-N
[12] = system: SK-MEL-2
[13] = system: HOP-62
[14] = system: SN12C
[15] = system: A549
[16] = system: HCC 2998
[17] = system: Hs-578T
[18] = system: MCF7
[19] = system: NCI-H460
[20] = system: OVCAR-4
[21] = system: BT-549
[22] = system: Malme-3M
[23] = system: NCI/ADR-RES
[24] = system: NCI-H226
[25] = system: CAKI-1
[26] = system: PC-3
[27] = system: TK-10
[28] = system: MDA-MB-435
[29] = system: SW-620
[30] = system: RXF 393
[31] = system: SF-268
[32] = system: EKVX
[33] = system: NCI-H522
[34] = system: CCRF-CEM
[35] = system: SK-MEL-28
[36] = system: M14
[37] = system: UACC-62
[38] = system: UACC-257
[39] = system: COLO 205
[40] = system: T47D
[41] = system: U-251
[42] = system: DU-145
[43] = system: OVCAR-3
[44] = system: OVCAR-5
[45] = system: IGROV-1
[46] = system: MDA-MB-231
[47] = system: HT-29
[48] = system: UO-31
[49] = system: HCT-116
[50] = system: NCI-H23
[51] = system: SK-MEL-5
[52] = system: A498
[53] = system: KM12
[54] = system: RPMI-8226
[55] = system: SF-539
[56] = system: HL-60
[57] = system: HOP-92
[58] = system: SR
[59] = system: LOX IMVI

Measured: GI50

S=C(N1CCN(c2ccccc2)CC1)N1CCN(c2ccccc2)CC1
inactive: [1] > 100 µM | [2] > 100 µM | [3] > 100 µM | [4] > 100 µM | [5] 52.1 µM | [6] > 100 µM | [8] > 100 µM | [9] 71.3 µM | [10] 27.2 µM | [11] 89.5 µM | [12] > 100 µM | [13] > 100 µM | [14] > 100 µM | [15] > 100 µM | [16] > 100 µM | [17] > 100 µM | [18] > 100 µM | [19] > 100 µM | [20] > 100 µM | [21] > 100 µM | [22] > 100 µM | [23] > 100 µM | [24] 94.6 µM | [25] > 100 µM | [26] > 100 µM | [27] > 100 µM | [28] > 100 µM | [29] > 100 µM | [30] > 100 µM | [31] > 100 µM | [32] > 100 µM | [33] > 100 µM | [34] 24.4 µM | [35] 86.9 µM | [36] > 100 µM | [37] > 100 µM | [38] > 100 µM | [39] > 100 µM | [40] > 100 µM | [41] > 100 µM | [42] > 100 µM | [43] > 100 µM | [44] > 100 µM | [45] 90.8 µM | [46] > 100 µM | [47] 55.2 µM | [48] > 100 µM | [49] 81.8 µM | [50] > 100 µM | [51] 95.1 µM | [52] > 100 µM | [53] > 100 µM | [54] > 100 µM
> 100 µM: [7]

CC(C)Oc1c(-c2c(OC(C)C)c(=O)c2=O)c(=O)c1=O
active: [22] 0.344 µM
> 60.5 µM: [7]
inactive: [1] > 34.7 µM | [55] > 65.8 µM | [2] > 69 µM | [3] > 31.8 µM | [4] > 70.6 µM | [5] > 65 µM | [6] > 52.5 µM | [8] > 100 µM | [56] 24.7 µM | [9] > 36.6 µM | [10] 48 µM | [11] > 29 µM | [12] > 56.9 µM | [57] > 100 µM | [13] > 36.1 µM | [14] > 49.2 µM | [15] > 100 µM | [16] > 55.3 µM | [17] > 41.9 µM | [18] > 20.2 µM | [19] > 60.7 µM | [20] > 49.7 µM | [21] > 48 µM | [23] 4.81 µM | [24] > 78.3 µM | [58] > 100 µM | [25] > 100 µM | [27] > 70.1 µM | [28] > 30.2 µM | [29] > 34.9 µM | [30] > 56.6 µM | [31] > 47.3 µM | [32] > 48.5 µM | [33] > 20.1 µM | [34] > 52 µM | [35] > 68.2 µM | [36] > 100 µM | [37] > 40 µM | [38] > 56.4 µM | [39] > 29.7 µM | [40] > 100 µM | [41] > 36.5 µM | [42] > 100 µM | [44] > 100 µM | [45] > 31.7 µM | [46] > 36.7 µM | [47] > 23.1 µM | [48] > 58.5 µM | [49] > 32.4 µM | [50] > 52.8 µM | [59] > 32.4 µM | [51] > 41.6 µM | [52] > 100 µM | [53] > 36.5 µM | [54] 29.9 µM
